The results in this text go back to PMC5218480 (PLoS ONE, 2017).

In the assay the test system is MV-4-11 cells. Description: Gene expression microarray analysis (Affymetrix PrimeView) and GSEA. The format is cell-based, human. On the set-up: RFU PODN (11730768_x_at) / Fold change /veh PODN (11730768_x_at) / RFU LINC00158 (11744669_a_at) / Fold change /veh LINC00158 (11744669_a_at) / RFU DUSP10 (11751237_a_at) / Fold change /veh DUSP10 (11751237_a_at) / RFU ID3 (11757404_x_at) / Fold change /veh ID3 (11757404_x_at) / RFU PLEKHG5 (11737974_s_at) / Fold change /veh PLEKHG5 (11737974_s_at) / RFU LRRC4B (11730491_at) / Fold change /veh LRRC4B (11730491_at) / RFU GIMAP4 (11747438_a_at) / Fold change /veh GIMAP4 (11747438_a_at) / RFU KRT8 (11758183_x_at) / Fold change /veh KRT8 (11758183_x_at) / RFU CNN1 (11734310_a_at) / Fold change /veh CNN1 (11734310_a_at) / RFU VPS37D (11726825_at) / Fold change /veh VPS37D (11726825_at) / RFU C10orf10 (11716522_x_at) / Fold change /veh C10orf10 (11716522_x_at) / RFU KIR2DL2 /// KIR2DL4 /// KIR2DL5A /// KIR2DL5B /// KIR2DS1 /// KIR2DS2 /// KIR2DS3 /// KIR2DS4 /// KIR3DL3 /// KIR3DL3 /// KIR3DS1 (11738374_at) / Fold change /veh KIR2DL2 /// KIR2DL4 /// KIR2DL5A /// KIR2DL5B /// KIR2DS1 /// KIR2DS2 /// KIR2DS3 /// KIR2DS4 /// KIR3DL3 /// KIR3DL3 /// KIR3DS1 (11738374_at) / RFU C1QL1 (11718748_at) / Fold change /veh C1QL1 (11718748_at) / RFU TMPRSS4 (11747572_a_at) / Fold change /veh TMPRSS4 (11747572_a_at) / RFU HAMP (11756126_x_at) / Fold change /veh HAMP (11756126_x_at) / RFU RNFT2 (11725882_a_at) / Fold change /veh RNFT2 (11725882_a_at) / RFU NR4A2 (11747474_a_at) / Fold change /veh NR4A2 (11747474_a_at) / RFU ABCC12 (11746883_a_at) / Fold change /veh ABCC12 (11746883_a_at) / RFU TMEM136 (11760407_x_at) / Fold change /veh TMEM136 (11760407_x_at) / RFU CLDN22 /// WWC2 (11732394_at) / Fold change /veh CLDN22 /// WWC2 (11732394_at) / RFU HLA-DPB1 (11760878_x_at) / Fold change /veh HLA-DPB1 (11760878_x_at) / RFU SPINT1 (11716480_a_at) / Fold change /veh SPINT1 (11716480_a_at) / RFU GAP43 (11754022_s_at) / Fold change /veh GAP43 (11754022_s_at) / RFU A4GNT (11735810_at) / Fold change /veh A4GNT (11735810_at) / RFU PRB3 (11715151_x_at) / Fold change /veh PRB3 (11715151_x_at) / RFU TUBB4B (11761932_at) / Fold change /veh TUBB4B (11761932_at) / RFU CAPN14 (11732068_a_at) / Fold change /veh CAPN14 (11732068_a_at) / RFU TMCC2 (11721928_a_at) / Fold change /veh TMCC2 (11721928_a_at) / RFU IRGQ (11745062_a_at) / Fold change /veh IRGQ (11745062_a_at) / RFU FAM174B (11720279_a_at) / Fold change /veh FAM174B (11720279_a_at) / RFU TMPRSS4 (11748680_a_at) / Fold change /veh TMPRSS4 (11748680_a_at) / RFU FAM212B (11763350_a_at) / Fold change /veh FAM212B (11763350_a_at) / RFU PLEKHG5 (11743358_a_at) / Fold change /veh PLEKHG5 (11743358_a_at) / RFU ZSCAN30 (11745921_a_at) / Fold change /veh ZSCAN30 (11745921_a_at) / RFU CMKLR1 (11741424_a_at) / Fold change /veh CMKLR1 (11741424_a_at) / RFU LOC101060620 /// MAPK8IP1 (11723275_at) / Fold change /veh LOC101060620 /// MAPK8IP1 (11723275_at) / RFU SPTSSB (11747773_x_at) / Fold change /veh SPTSSB (11747773_x_at) / RFU PRSS12 (11739890_at) / Fold change /veh PRSS12 (11739890_at) / RFU BIN1 (11741810_x_at) / Fold change /veh BIN1 (11741810_x_at) / RFU WNT11 (11732464_a_at) / Fold change /veh WNT11 (11732464_a_at) / RFU C10orf10 (11716521_a_at) / Fold change /veh C10orf10 (11716521_a_at) / RFU C5orf56 (11738089_at) / Fold change /veh C5orf56 (11738089_at) / RFU CYB561 (11721691_x_at) / Fold change /veh CYB561 (11721691_x_at) / RFU ANKRD19P (11752326_a_at) / Fold change /veh ANKRD19P (11752326_a_at) / RFU OR2T12 /// OR2T33 /// OR2T8 (11738714_s_at) / Fold change /veh OR2T12 /// OR2T33 /// OR2T8 (11738714_s_at) / RFU VCAN (11748164_a_at) / Fold change /veh VCAN (11748164_a_at) / RFU JSRP1 (11732532_at) / Fold change /veh JSRP1 (11732532_at) / RFU KRTAP10-11 (11738290_x_at) / Fold change /veh KRTAP10-11 (11738290_x_at) / RFU MYO3A (11730013_a_at) / Fold change /veh MYO3A (11730013_a_at) / RFU EBF3 (11725865_a_at) / Fold change /veh EBF3 (11725865_a_at) / RFU CAMK2N1 (11719241_x_at) / Fold change /veh CAMK2N1 (11719241_x_at) / RFU C5orf56 (11738088_a_at) / Fold change /veh C5orf56 (11738088_a_at) / RFU OLFML3 (11715873_a_at) / Fold change /veh OLFML3 (11715873_a_at) / RFU LOC100653217 /// NTM (11731650_a_at) / Fold change /veh LOC100653217 /// NTM (11731650_a_at) / RFU MAPK11 (11762145_a_at) / Fold change /veh MAPK11 (11762145_a_at) / RFU FIZ1 (11724087_x_at) / Fold change /veh FIZ1 (11724087_x_at) / RFU OASL (11726364_x_at) / Fold change /veh OASL (11726364_x_at) / RFU SOX15 (11748057_x_at) / Fold change /veh SOX15 (11748057_x_at) / RFU CD79A (11719716_a_at) / Fold change /veh CD79A (11719716_a_at) / RFU HIST1H1D (11736915_at) / Fold change /veh HIST1H1D (11736915_at) / RFU CASKIN2 (11723855_a_at) / Fold change /veh CASKIN2 (11723855_a_at) / RFU LOC730098 (11760151_x_at) / Fold change /veh LOC730098 (11760151_x_at) / RFU OR4N2 (11742367_at) / Fold change /veh OR4N2 (11742367_at) / RFU PRRT2 (11749266_a_at) / Fold change /veh PRRT2 (11749266_a_at) / RFU SNX32 (11753110_a_at) / Fold change /veh SNX32 (11753110_a_at) / RFU CDHR5 (11726645_a_at) / Fold change /veh CDHR5 (11726645_a_at) / RFU RCAN1 (11760418_a_at) / Fold change /veh RCAN1 (11760418_a_at) / RFU FAM167A (11723789_a_at) / Fold change /veh FAM167A (11723789_a_at) / RFU FAM26E (11764081_at) / Fold change /veh FAM26E (11764081_at) / RFU ISYNA1 (11749810_s_at) / Fold change /veh ISYNA1 (11749810_s_at) / RFU ACY1 (11761880_at) / Fold change /veh ACY1 (11761880_at) / RFU 11764098_at / Fold change /veh 11764098_at / RFU SAMD14 (11745864_x_at) / Fold change /veh SAMD14 (11745864_x_at) / RFU NPB (11741838_a_at) / Fold change /veh NPB (11741838_a_at) / RFU TMPRSS6 (11731388_a_at) / Fold change /veh TMPRSS6 (11731388_a_at) / RFU KRTAP10-2 (11738614_at) / Fold change /veh KRTAP10-2 (11738614_at) / RFU ARHGAP8 /// PRR5-ARHGAP8 (11727945_x_at) / Fold change /veh ARHGAP8 /// PRR5-ARHGAP8 (11727945_x_at) / RFU KRTAP5-7 /// NADSYN1 (11734609_at) / Fold change /veh KRTAP5-7 /// NADSYN1 (11734609_at) / RFU RASL12 (11751679_a_at) / Fold change /veh RASL12 (11751679_a_at) / RFU CDKN2B (11736163_a_at) / Fold change /veh CDKN2B (11736163_a_at) / RFU PRF1 (11729649_at) / Fold change /veh PRF1 (11729649_at) / RFU, ZNF638 /// ZNF638-IT1 / Fold change vs veh, ZNF638 /// ZNF638-IT1 / RFU, PANK3 / Fold change vs veh, PANK3 / RFU, SH3YL1 / Fold change vs veh, SH3YL1 / RFU, ZEB2 / Fold change vs veh, ZEB2 / RFU, NRIP1 / Fold change vs veh, NRIP1 / RFU, PTTG1IP / Fold change vs veh, PTTG1IP / RFU, CAPN2 / Fold change vs veh, CAPN2 / RFU, MED14 / Fold change vs veh, MED14 / RFU, SNORA58 / Fold change vs veh, SNORA58 / RFU, C1orf63 / Fold change vs veh, C1orf63 / RFU, LRRFIP1 / Fold change vs veh, LRRFIP1 / RFU, NDUFAF7 / Fold change vs veh, NDUFAF7 / RFU, SLC12A2 / Fold change vs veh, SLC12A2 / RFU, IBTK / Fold change vs veh, IBTK / RFU, ESF1 / Fold change vs veh, ESF1 / Fold change vs veh, TMEM50B / RFU, TAOK1 / Fold change vs veh, TAOK1 / RFU, ACBD3 / Fold change vs veh, ACBD3 / RFU, TMA16 / Fold change vs veh, TMA16 / RFU, RWDD3 / Fold change vs veh, RWDD3 / RFU, BCAT1 / Fold change vs veh, BCAT1 / RFU, EDEM3 / Fold change vs veh, EDEM3 / RFU, TMEM33 / Fold change vs veh, TMEM33 / RFU, WDR75 / Fold change vs veh, WDR75 / RFU, AHCTF1 / Fold change vs veh, AHCTF1 / RFU, TFRC / Fold change vs veh, TFRC / RFU, ZDHHC17 / Fold change vs veh, ZDHHC17 / RFU, NOM1 / Fold change vs veh, NOM1 / RFU, ARL8B / Fold change vs veh, ARL8B / RFU, ZBTB11 / Fold change vs veh, ZBTB11 / RFU, TAMM41 / Fold change vs veh, TAMM41 / RFU, KIAA1704 /// LOC100996395 / Fold change vs veh, KIAA1704 /// LOC100996395 / RFU, ING1 / Fold change vs veh, ING1 / RFU, TRMT61B / Fold change vs veh, TRMT61B / RFU, FUBP3 / Fold change vs veh, FUBP3 / RFU, TP53 / Fold change vs veh, TP53 / RFU, TNKS2 / Fold change vs veh, TNKS2 / RFU, ZFP14 / Fold change vs veh, ZFP14 / RFU, ACTR2 / Fold change vs veh, ACTR2 / RFU, PPP3R1 / Fold change vs veh, PPP3R1 / RFU, PIK3R1 / Fold change vs veh, PIK3R1 / RFU, HNRNPA1 / Fold change vs veh, HNRNPA1 / RFU, RNF170 / Fold change vs veh, RNF170 / RFU, ZNF28 / Fold change vs veh, ZNF28 / RFU, RNGTT / Fold change vs veh, RNGTT / RFU, OGT / Fold change vs veh, OGT / RFU, BRD1 / Fold change vs veh, BRD1 / RFU, MARS / Fold change vs veh, MARS / RFU, ZNF655 / Fold change vs veh, ZNF655 / RFU, FAHD1 / Fold change vs veh, FAHD1 / RFU, BDP1 / Fold change vs veh, BDP1 / RFU, LRRCC1 / Fold change vs veh, LRRCC1 / RFU, ARID1A / Fold change vs veh, ARID1A / RFU, ZNF146 / Fold change vs veh, ZNF146 / RFU, ZNF330 / Fold change vs veh, ZNF330 / RFU, GPN3 / Fold change vs veh, GPN3 / RFU, C9orf123 / Fold change vs veh, C9orf123 / RFU, N4BP2L2 / Fold change vs veh, N4BP2L2 / RFU, ARFIP1 / Fold change vs veh, ARFIP1 / RFU, FAM179B / Fold change vs veh, FAM179B / RFU, BCL10 / Fold change vs veh, BCL10 / RFU, UHRF1BP1L / Fold change vs veh, UHRF1BP1L / RFU, BET1 / Fold change vs veh, BET1 / RFU, CNOT2 / Fold change vs veh, CNOT2 / RFU, ZNF268 / Fold change vs veh, ZNF268 / Fold change vs veh, ZNF507 / RFU, DGCR2 / Fold change vs veh, DGCR2 / RFU, WDSUB1 / Fold change vs veh, WDSUB1 / Fold change vs veh, HSP90B1 /// MIR3652 / RFU, ADSS / Fold change vs veh, ADSS / RFU, GK / Fold change vs veh, GK / RFU, ZNF148 / Fold change vs veh, ZNF148 / RFU, TAF9 / Fold change vs veh, TAF9 / RFU, SLC1A5 / Fold change vs veh, SLC1A5 / RFU, SLMO2 / Fold change vs veh, SLMO2 / RFU, ABCC4 / Fold change vs veh, ABCC4 / RFU, LOC101060439 /// RAP1B / Fold change vs veh, LOC101060439 /// RAP1B / RFU, RFX7 / Fold change vs veh, RFX7 / RFU, GTPBP10 / Fold change vs veh, GTPBP10 / RFU, CNEP1R1 / Fold change vs veh, CNEP1R1 / RFU, BIVM-ERCC5 /// ERCC5 / Fold change vs veh, BIVM-ERCC5 /// ERCC5 / RFU, ILF3 / Fold change vs veh, ILF3 / RFU 11762660_at / Fold change /veh 11762660_at / RFU VCAN (11757783_s_at) / Fold change /veh VCAN (11757783_s_at) / RFU DDX43 (11728927_at) / Fold change /veh DDX43 (11728927_at) / RFU KRT8 (11758188_x_at) / Fold change /veh KRT8 (11758188_x_at) / RFU NKD1 (11759106_at) / Fold change /veh NKD1 (11759106_at) / RFU SRD5A1 (11742802_a_at) / Fold change /veh SRD5A1 (11742802_a_at) / RFU TPSAB1 /// TPSB2 (11721975_s_at) / Fold change /veh TPSAB1 /// TPSB2 (11721975_s_at) / RFU GSTM3 (11746129_a_at) / Fold change /veh GSTM3 (11746129_a_at) / RFU IL23R (11737362_x_at) / Fold change /veh IL23R (11737362_x_at) / RFU TMEM51 (11727254_a_at) / Fold change /veh TMEM51 (11727254_a_at) / RFU PIWIL2 (11732686_x_at) / Fold change /veh PIWIL2 (11732686_x_at) / RFU ORM1 (11744905_x_at) / Fold change /veh ORM1 (11744905_x_at) / RFU CCDC152 (11743942_at) / Fold change /veh CCDC152 (11743942_at) / RFU ECM1 (11717891_a_at) / Fold change /veh ECM1 (11717891_a_at) / RFU IL23R (11748794_a_at) / Fold change /veh IL23R (11748794_a_at) / RFU TNFAIP8L3 (11732012_x_at) / Fold change /veh TNFAIP8L3 (11732012_x_at) / RFU MBOAT4 (11741988_at) / Fold change /veh MBOAT4 (11741988_at) / RFU 11764193_at / Fold change /veh 11764193_at / RFU TMEM53 (11763286_at) / Fold change /veh TMEM53 (11763286_at) / RFU MAGEB2 (11727129_at) / Fold change /veh MAGEB2 (11727129_at) / RFU TMEM200A (11744735_a_at) / Fold change /veh TMEM200A (11744735_a_at) / RFU CCDC152 (11751479_a_at) / Fold change /veh CCDC152 (11751479_a_at) / RFU FAM211A (11726209_a_at) / Fold change /veh FAM211A (11726209_a_at) / RFU RGS16 (11746705_a_at) / Fold change /veh RGS16 (11746705_a_at) / RFU VCAN (11755009_s_at) / Fold change /veh VCAN (11755009_s_at) / RFU RHOB (11743442_s_at) / Fold change /veh RHOB (11743442_s_at) / RFU RGS16 (11720943_a_at) / Fold change /veh RGS16 (11720943_a_at) / RFU RGS16 (11720944_at) / Fold change /veh RGS16 (11720944_at) / RFU, VPS4B / Fold change vs veh, VPS4B / RFU, CREB1 / Fold change vs veh, CREB1 / RFU, DNAJC13 / Fold change vs veh, DNAJC13 / RFU, GNAQ / Fold change vs veh, GNAQ / RFU, CDK5R1 / Fold change vs veh, CDK5R1 / RFU, ZRANB3 / Fold change vs veh, ZRANB3 / RFU, CUL4A / Fold change vs veh, CUL4A / RFU, CCNY / Fold change vs veh, CCNY / RFU, UFL1 / Fold change vs veh, UFL1 / RFU, COG3 / Fold change vs veh, COG3 / RFU, DIAPH2 / Fold change vs veh, DIAPH2 / RFU, SKA2 / Fold change vs veh, SKA2 / RFU, AFF3 / Fold change vs veh, AFF3 / RFU, LMF1 / Fold change vs veh, LMF1 / RFU, IPO11 / Fold change vs veh, IPO11 / RFU, DFFB / Fold change vs veh, DFFB / RFU, FOXP1 / Fold change vs veh, FOXP1 / RFU, CARD8 / Fold change vs veh, CARD8 / RFU, STRN3 / Fold change vs veh, STRN3 / RFU, ADK / Fold change vs veh, ADK / RFU, RASSF2 / Fold change vs veh, RASSF2 / RFU, WIPF1 / Fold change vs veh, WIPF1 / RFU, LARP1B / Fold change vs veh, LARP1B / RFU, RASA1 / Fold change vs veh, RASA1 / RFU, RB1 / Fold change vs veh, RB1 / RFU, PPFIA1 / Fold change vs veh, PPFIA1 / RFU, MAT2A / Fold change vs veh, MAT2A / RFU, CCT5 / Fold change vs veh, CCT5 / RFU, WDR92 / Fold change vs veh, WDR92 / RFU, CUX1 / Fold change vs veh, CUX1 / RFU, TTC7A / Fold change vs veh, TTC7A / RFU, TMEM135 / Fold change vs veh, TMEM135 / RFU, DEPTOR / Fold change vs veh, DEPTOR / RFU, CPM / Fold change vs veh, CPM / RFU, DNAJB6 / Fold change vs veh, DNAJB6 / RFU, CACNA2D3 / Fold change vs veh, CACNA2D3 / RFU, DTX4 / Fold change vs veh, DTX4 / RFU, TFCP2 / Fold change vs veh, TFCP2 / RFU, GMCL1 /// GMCL1P1 / Fold change vs veh, GMCL1 /// GMCL1P1 / RFU, AEBP2 / Fold change vs veh, AEBP2 / RFU, SNHG1 /// SNORD22 /// SNORD25 /// SNORD26 /// SNORD27 /// SNORD28 /// SNORD29 /// SNORD31 / Fold change vs veh, SNHG1 /// SNORD22 /// SNORD25 /// SNORD26 /// SNORD27 /// SNORD28 /// SNORD29 /// SNORD31 / Fold change (Aza/veh), C12orf56 (ProbeSet 11735607_a_at) / Fold change (ACY-1035/veh), C12orf56 (ProbeSet 11735607_a_at) / Fold change (Aza/veh), FGFR1OP (ProbeSet 11751329_s_at) / Fold change (ACY-1035/veh), FGFR1OP (ProbeSet 11751329_s_at) / Fold change (Aza/veh), VPS36 (ProbeSet 11739960_a_at) / Fold change (ACY-1035/veh), VPS36 (ProbeSet 11739960_a_at) / RFU SYPL1 (11715823_x_at) / Fold change /veh SYPL1 (11715823_x_at) / RFU IGFBP7 (11715501_s_at) / Fold change /veh IGFBP7 (11715501_s_at) / RFU REEP3 (11722064_at) / Fold change /veh REEP3 (11722064_at) / RFU IGLL1 (11728026_x_at) / Fold change /veh IGLL1 (11728026_x_at): dose or concentration left out as unconfirmed. The note with it: gene FGFR1OP; ACY-1035 vs DMSO; LIST F.

Turning to `Nc1ccc(-c2cccs2)cc1NC(=O)c1ccc2c(c1)cc(C1CC1)n2CCN1CCOCC1` [ACY-1035], the “Fold change (ACY-1035/veh), FGFR1OP (ProbeSet 11751329_s_at)” value came out at 0.57.
